Test [1] concerns 409-B2 iCRISPR-Cas9 iPSCs. As to the kind of experiment: PGE efficiency with iCRISPR Cas9 and ssODN donors. Format: cell-based, human. On the procedure:
(§1) FIG. 1: Genome editing and analysis flowchart. iCRISPR 409-B2 iPSCs are treated with 2 μg/ml doxycycline at least for 2 days to induce Cas9 or Cas9D10A expression. Reverse transfection with RNAiMAX, gRNA (7.5 nM each), ssODN (10 nM) and the small molecules to be evaluated is carried out in a 96 well plate for 1 day. The amount of cells used gives ˜80% confluency. Cells are then expanded for 3 days with regular media change. After harvest follows DNA extraction, PCR amplification of targeted loci, Illumina sequencing and CRISPResso (Pinello et al. 2016) sequence analysis for amount of indels and precise genome editing.
(§2) Cells were incubated with media containing 2 μg/ml doxycycline (Clontech, 631311) 2 days prior to lipofection. Lipofection (reverse transfection) was done using the alt-CRISPR manufacturer's protocol (IDT) with a final concentration of 7.5 nM of each gRNA and 10 nM of the respective ssODN. In brief, 0.75 μl RNAiMAX (Invitrogen, 13778075) and the respective oligonucleotides were separately diluted in 25 μl OPTI-MEM (Gibco, 1985-062) each and incubated at room temperature for 5 min. Both dilutions were mixed to yield 50 μl of OPTI-MEM including RNAiMAX, gRNAs and ssODNs. The lipofection mix was incubated for 20-30 min at room temperature. During incubation cells were dissociated using EDTA for 5 min and counted using the Countess Automated Cell Counter (Invitrogen). The lipofection mix, 100 μl containing 25.000 dissociated cells in mTeSR1 supplemented with Y-27632, 2 μg/ml doxycycline and the respective small molecule(s) to be tested were throughoutly mixed and put in one well of a 96 well covered with Matrigel Matrix (Corning, 35248). Media was exchanged to regular mTeSR1 media after 24 hours.
(§3) Three days after lipofection cells were dissociated using Accutase (SIGMA, A6964), pelleted, and resuspended in 15 μl QuickExtract (Epicentre, QE0905T). Incubation at 65° C. for 10 min, 68° C. for 5 min and finally 98° C. for 5 min was performed to yield ssDNA as a PCR template. Primers for each targeted loci of CALD1, KATNA1 and SLITRK1 containing adapters for Illumina sequencing were ordered from IDT (Coralville, USA). PCR was done in a T100 Thermal Cycler (Bio-Rad) using the KAPA2G Robust PCR Kit (Peqlab, 07-KK5532-03) with supplied buffer B and 3 μl of cell extract in a total volume of 25 μl. The thermal cycling profile of the PCR was: 95° C. 3 min; 34×(95° 15 sec, 65° C. 15 sec, 72° C. 15 sec); 72° C. 60 sec. P5 and P7 Illumina adapters with sample specific indices were added in a second PCR reaction (Kircher et al. 2012) using Phusion HF MasterMix (Thermo Scientific, F-531L) and 0.3 μl of the first PCR product. The thermal cycling profile of the PCR was: 98° C. 30 sec; 25× (98° 10 sec, 58° C. 10 sec, 72° C. 20 sec); 72° C. 5 min. Amplifications were verified by size separating agarose gel electrophoresis using EX gels (Invitrogen, G4010-11). The indexed amplicons were purified using Solid Phase Reversible Immobilization (SPRI) beads (Meyer, Kircher 2010). Double-indexed libraries were sequenced on a MiSeq (Illumina) giving paired-end sequences of 2×150 bp. After base calling using Bustard (Illumina) adapters were trimmed using leeHom (Renaud et al. 2014).
(§4) CRISPresso (Pinello et al. 2016) was used to analyse sequencing data from CRISPR genome editing experiments for percentage of wildtype, targeted nucleotide substitutions (TNS), indels and mix of TNS and indels. Parameters used for analysis were ‘-w 20’, ‘--min_identity_score 70’ and ‘--ignore_substitutions’ (analysis was restricted to amplicons with a minimum of 70% similarity to the wildtype sequence and to a window of 20 bp from each gRNA; substitutions were ignored, as sequencing errors would be falsely characterized as NHEJ-events). Sequencing data from colonies after single cell seeding (FIGS. 3B and C) was further analyzed by evaluating the actual read sequences using SAMtools. Clonal colonies were differentiated from mixed colonies using sequence read proportions. […]

For test [2], the system named is 409-B2 iCRISPR-Cas9D10A iPSCs. The experiment in a line: Precise genome editing (PGE) efficiency with iCRISPR Cas9D10A double nicking and ssODN donors, Illumina sequencing/CRISPResso. The settings on record: Cas9D10A; for PGE increase (mean change vs control): 20 μM NU7026, 0.01 μM TSA, 0.5 μM MLN4924, 5 μM NSC 15520, CRISPY mix = all four. Type of test: cell-based, human. On the procedure:
as §1, §2, §3, §4

Where [3] appears, read: CALD1, 20 μM NU7026, 5 μM NSC 15520.
Setting [4] is: KATNA1, 20 μM NU7026, 5 μM NSC 15520.
Where [5] appears, read: SLITRK1, 20 μM NU7026, 5 μM NSC 15520.

For `NS(=O)(=O)OC[C@@H]1C[C@@H](n2ccc3c(N[C@H]4CCc5ccccc54)ncnc32)C[C@@H]1O` [MLN4924, Pevonedistat], the “effect on PGE frequency over CALD1, KATNA1 and SLITRK1 compared to controls” value in test [1] (0.01 μM TSA, 0.5 μM MLN4924, 1 μM NSC 19630, 20 μM AICAR, 1 μM RS-1, 1 μM Resveratrol, 1 μM SCR7, 5 μM L755507, 5 μM STL127685, 20 μM B02) is given as “slight diminishing effect”. Besides, the “PGE increase (mean change vs control)” value in test [2] (CALD1) worked out at 1.2 fold; in test [2] (KATNA1), 1.1 fold; in test [2] (SLITRK1), 1.3 fold. Besides, in test [2] (0.5 μM MLN4924, p<0.01), the “additional increase in PGE on addition to the mix of NU7026 and TSA” value is recorded as 1.3 fold.

Consider `CC(C)C1=CC23CCC4C(C)(C(=O)O)CCCC4(C)C2CC1C(C(=O)O)C3C(=O)O` (stereo not shown) [NSC 15520, Fumaropimaric acid], for which the “PGE increase (mean change vs control)” value in test [1] (setting [3]) is 1.3 fold; in test [1] (setting [4]) it was “no effect”; in test [1] (setting [5]) it was “no effect”; in test [2] (CALD1), 1.4 fold; in test [2] (KATNA1), “no effect”; in test [2] (SLITRK1) it was “no effect”. Also, the “effect on PGE of further addition to the mix of NU7026, TSA and MLN4924” value in test [2] (all loci, 5 μM NSC 15520, then 1 μM NSC 19630, 20 μM AICAR, 1 μM RS-1 (FIG. 5A)) is recorded as “slightly increased”.

For `O=c1cc(N2CCOCC2)oc2c1ccc1ccccc12` [NU7026], the “PGE increase (mean change vs control)” value was found to be 1.5 fold in test [1] (setting [3]); 1.6 fold in test [1] (setting [4]); 1.2 fold in test [1] (setting [5]); 1.5 fold in test [2] (CALD1); 2.6 fold in test [2] (KATNA1); 2.5 fold in test [2] (SLITRK1). Besides, the “higher PGE frequency than without the molecules” value in test [2] (pooled across CALD1, KATNA1, SLITRK1 (FIG. 5A), p<0.001) was determined as 2.3 fold.

These data come from patent US12173309B2, “Compounds for increasing genome editing efficiency” (Max-Planck-Gesellschaft zur Förderung der Wissenschaften …, priority 2017, dated 2024).
